Measured values: patent publication US20170128409A1, “PROPHYLACTIC OR THERAPEUTIC AGENT FOR ATTENTION DEFICIT/HYPERACTIVITY DISORDER” (Takeda Pharmaceutical Company Limited, priority 2008, published 2017)

Assays:
SHR-SP = conditions: at a low dose; cited from earlier work
SHR-SP rats = experiment: 2-lever discriminative reaction task in SHR-SP rats (ADHD model); assay type: in vivo, rat
Source text: A. Test method (1) While spontaneously hypertensive rat (SHR) is a hypertension model rat widely used in research, this lineage not only develops hypertension but also behaves similarly in the juvenile stage to patients with attention deficit/hyperactivity disorder (attention-deficit/hyperactivity disorder: ADHD), as evidenced by disrupted retention of attention and the like (Sagvolden T, Russell V A, Aase H, Johansen E B, Farshbaf M. (2005): Rodent models of attention-deficit/hyperactivity disorder. Biol Psychiatry. 57(11): 1239-47). Particularly, SHR-SP (subtype of SHR) in the juvenile stage is recently recognized as an animal model of developmental disorder such as ADHD by those of ordinary skill in the art (Ueno K I, Togashi H, Mori K, Matsumoto M, Ohashi S, Hoshino A, Fujita T, Saito H, Minami M, Yoshioka M. (2002): Behavioural and pharmacological relevance of stroke-prone spontaneously hypertensive rats as an animal model of a developmental disorder. Behav Pharmacol. 13(1): 1-13).
Thus, those of ordinary skill in the art consider that SHR-SP is suitable as an ADHD model.
Therefore, the inventor employed the SHR-SP rats and evaluated the effect of compound A on ADHD.
(2) The test was performed using 24 SHR-SP rats and 12 WKY rats (both 5-week-old; provided by CLEA Japan, Inc.). They were reared at 12 hr light-dark cycle (light was on at 7:00 am) and allowed free access to water. The feeding was restricted such that the body weight was 85% of that by free food ingestion. All rats were subjected to handling before the test.
As a test apparatus, 4 Skinner boxes each equipped with a 45 mg feed pellet feeding tray (reward delivery opening) in the center of the wall and a cue lamp and a retractable lever set on the sides of the tray were set (see FIG. 1).
(3) The rats were trained for 2 days for lever pressing-feeding associative learning. One session consisted of 30 trials or 900 sec. Two levers were presented, pressing either lever affords feed pellets (reinforcer), and a buzzer sound indicating correctness was made. Solely in the training on the initial day, feed pellets were automatically given with a buzzer every 45 seconds. All animals reached the criteria obtaining 30 feed pellets within 300 sec. (4) In the test session, a 2-lever discriminative reaction task was performed. In the 2-lever discriminative reaction task, 1 session consisted of 30 sets of ITI (inter-trial interval) for 30 sec and reaction latency for 30 sec maximum. The house lamp was turned on at the start of the session to indicate both retractable levers. The lever pressing reaction of the animal was sequentially recorded while indicating the levers until completion of 30 trials. […]

| SMILES | effect on abnormal behaviors of SHR-SP (SHR-SP) | transition of total number of reaction during trials (index of impulsivity) (SHR-SP rats; 1.0 mg/kg oral daily, up to session 4, positive drug group vs control group, FIG. 5) | correct answer latency (reaction latency when correct answer was selected) (index of motivation, sedation and the like) (SHR-SP rats; 1.0 mg/kg oral, 14 consecutive days, positive drug group vs control group, FIG. 7) | number of correct answers (number of reward obtained) (index of attentional deficit) (SHR-SP rats; 1.0 mg/kg oral, 14 consecutive days, positive drug group vs control group, p=0.09, FIG. 6) | total number of reaction during trials (index of impulsivity) (SHR-SP rats; 1.0 mg/kg oral, 14 consecutive days, session 11, positive drug group vs control group, t-test p=0.09, FIG. 5) |
| --- | --- | --- | --- | --- | --- |
| COC(=O)C(c1ccccc1)C1CCCCN1 (centres unmarked) [methylphenidate] | improving effect |  |  |  |  |
| CCC(=O)NCC[C@@H]1CCc2ccc3c(c21)CCO3 [compound A, (S)—N-[2-(1,6,7,8-tetrahydro-2H-indeno[5,4-b]furan-8-yl)ethyl]propionamide] |  | similar | did not show much difference | tended to increase | tended to decrease |
